Where “and” joins values, the source holds several entries; their conditions need not be identical. Equal values may be shown once.
Experiments:
[1] = Erythropoietin 40,000 units weekly for ribavirin-induced anemia; format: in vivo, human
Method: A study of interferon alone and interferon plus ribavirin for hepatitis C in HIV-infected patients was performed. Ten patients received interferon alone and 11 received the combination treatment of interferon alpha and ribavirin. Median liver biopsy fibrosis score for both groups was 2.1. In the interferon alone group, at 3 months, there was no change in HCV RNA, CD4 dropped from a median of 190 to 186 cells/ml and HIV RNA dropped from a median of 1500 copies per ml to less than 400. At the same time point, 3 months, in the combination group, the HCV RNA dropped from 3.2 million to less than about 600 copies/ml. […] This was treated with erythropoietin 40,000 units weekly when the hemoglobin declined to 10 g/dl. […] This was the first report of this treatment in patients with HIV infection as well as hepatitis C. […] This was done in both HIV seronegative individuals and HIV seropositive individuals.

[2] = format: in vivo, human
Method: In an open-label, prospective pilot study, 56 subjects with chronic HCV infection were treated with both RBV and IFN-α. Eighteen subjects with anemia (hemoglobin 10 g/dl or […]) and reduced exercise tolerance following IFN-α/RBV initiation were treated with Epoetin alpha (up to 40,000 units per week subcutaneously). […] At the time of epoetin alpha initiation, the mean hemoglobin level declined 25.4% (to 10.6 g/dL) in the group receiving this treatment. […] Two thirds of subjects receiving epoetin alpha reported improved symptoms. […] Fifty-six chronically HCV-infected (≥90 days) subjects who were treated with IFN-α (3 million units TIW) and RBV (1000 mg/d for subjects <75 kg or 1200 mg/d for subjects ≥75 kg) were entered into an open-label, pilot, prospective study at several centers. […] RBV doses were adjusted by treating physicians as clinically indicated throughout the study. Following INF-α/RBV initiation, subjects with new-onset anemia (hemoglobin ≤10 g/dL or ≥2 g/dL decrease in hemoglobin) or a decrease in hemoglobin accompanied by decreased exercise tolerance (providers' impressions) received epoetin alpha (up to 40,000 units per week, subcutaneously). […] After initiation of epoetin alpha therapy, subjects were evaluated at a 2-week interval for 8 weeks and every 4 weeks thereafter for a maximum of 40 weeks. At each visit, laboratory safety parameters were obtained and, for most subjects, health-care providers recorded whether improvement had occurred in symptoms that typically occur as a side-effect of anemia or after therapy with IFN-α/RBV (e.g., flu-like symptoms, fatigue, dyspnea). […] In addition, clinical benefit of epoetin alpha therapy was evaluated by comparing the percent decline in hemoglobin levels from baseline to initiation of epoetin alpha with the percent recovery in these levels by the last visit. Fisher's exact test or the t-test was used to evaluate the significance of differences between groups with respect to demographic characteristics.

[3] = format: in vivo, human; remark: listed apart in the source
Method: Once-weekly recombinant human erythropoietin (epoetin alpha) facilitates optimal ribavirin (RBV) dosing in Hepatitis C virus (HCV)-infected patients receiving Interferon-α-2b (IFN)/RBV combination therapy. RBV dose reduction or discontinuation has been the standard approach to treating hemoglobin (Hb) decreases resulting from IFN/RBV therapy in HCV-infected patients. […] An open-label, randomized, multicenter study was conducted to assess the efficacy and tolerability of once-weekly (QW) epoetin alpha therapy for hemoglobin decreases associated with IFN/RBV therapy and to evaluate the impact of epoetin alpha therapy on RBV dosing. HCV-infected patients who developed hemoglobin levels ≤12 g/dL during the first 24 weeks of combination IFN/RBV therapy (n=60) were randomly assigned to treatment with epoetin alpha (40000 units) subcutaneously once weekly for up to 36 weeks or standard of care (SOC). The primary and secondary efficacy end points were changes from baseline (at Week 16) in hemoglobin level and RBV dose, respectively.

hepatitis C virus [4] = test: Study of interferon alone and interferon plus ribavirin for hepatitis C in HIV-infected patients; format: in vivo, human; settings: interferon alone group, 3 months, 10 patients
Method: A study of interferon alone and interferon plus ribavirin for hepatitis C in HIV-infected patients was performed. Ten patients received interferon alone and 11 received the combination treatment of interferon alpha and ribavirin. Median liver biopsy fibrosis score for both groups was 2.1. In the interferon alone group, at 3 months, there was no change in HCV RNA, CD4 dropped from a median of 190 to 186 cells/ml and HIV RNA dropped from a median of 1500 copies per ml to less than 400. At the same time point, 3 months, in the combination group, the HCV RNA dropped from 3.2 million to less than about 600 copies/ml. […] The main adverse event was anemia which occurred in 5/21(23.8%). This was treated with erythropoietin 40,000 units weekly when the hemoglobin declined to 10 g/dl. […] This was the first report of this treatment in patients with HIV infection as well as hepatitis C.

hepatitis C virus [5] = settings: with interferon, licensing trials, cited from earlier work

epoetin alpha: recombinant human erythropoietin (r-HuEPO, Epoetin alpha)
hemoglobin after erythropoietin treatment ([1]; begun when hemoglobin declined to 10 g/dl, after a median of 4 weeks, HCV/HIV patients): 12.7 g/dL
quality of life ([1]; hemoglobin 11 gr/dl or less, HIV seronegative and seropositive): substantial increase in their quality of life
mean hemoglobin level at the last study visit ([2]; epoetin alpha up to 40,000 units per week s.c., N=18, mean follow-up 25.3 weeks): 12.7 g/dL and 12.7 ± 1.7 g/dL
Dyspnea (%) ([2]; human, in vivo): 80.0%
Dyspnea, median duration (wks) ([2]; human, in vivo): 6.6 wks
Fatigue (%) ([2]; human, in vivo): 73.3%
Fatigue, median duration (wks) ([2]; human, in vivo): 8.2 wks
Flu-like symptoms ([2]; human, in vivo): 46.7
Flu-like symptoms, median duration (wks) ([2]; human, in vivo): 2.7 wks
recovery in mean hemoglobin level after initiation of epoetin alpha ([2]; percent recovery by the last visit): 65.5% and 65.5±56.3%
mean hemoglobin level at last available assessment ([3]; P<0.05 vs SOC): 13.8 g/dL
mean change in RBV dose at last available assessment ([3]; baseline 998 mg/day, P<0.05 vs SOC): -25 mg/day
mean change from baseline hemoglobin level at last available assessment ([3]; epoetin alpha 40000 units s.c. once weekly, baseline 11.0 g/dL, P<0.05 vs SOC): +2.7 g/dL
tolerability ([3]; human, in vivo): well tolerated
patients treated with RBV doses greater than 10.6 mg/kg per day ([3]; last available assessment, P<0.01 vs SOC): 77%

IFN-α
change in HCV RNA (hepatitis C virus [4]): no change

NC(=O)c1ncn([C@@H]2O[C@H](CO)[C@@H](O)[C@H]2O)n1 [ribavirin]
sustained virologic response rate (hepatitis C virus [5]; at least 10.6 mg/kg ribavirin): over 40%
SVR (response) rate (hepatitis C virus [5]; less than 10.6 mg/kg ribavirin): 28%

From patent US10434143B2, “Method of treating anemia caused by ribavirin treatment of hepatitis C using erythropoietin alpha” (priority 2001, dated 2019)
